Measurements published in patent publication US9598391B2, “Substituted chroman compounds as calcium sensing receptor modulators” (LUPIN LIMITED, priority 2012, dated 2017).
Structures can show the parent of a compound that is named as a salt.

The compounds below were run against T1, Calcium Sensing Receptor (CaSR) (Homo sapiens, UniProt P41180) (assay: In-vitro assay of calcimimetics through modulation of Calcium Sensing Receptor (intracellular calcium, FLIPR)). Settings: HEK293 cells stably expressing hCaSR, increase in intracellular calcium, Fluo4NW dye, 0.3 mM CaCl2, 8-point assay, read-out: EC50 Range.
T1 construct: expressed in transfected cells
T1 sequence (P41180 20-1078): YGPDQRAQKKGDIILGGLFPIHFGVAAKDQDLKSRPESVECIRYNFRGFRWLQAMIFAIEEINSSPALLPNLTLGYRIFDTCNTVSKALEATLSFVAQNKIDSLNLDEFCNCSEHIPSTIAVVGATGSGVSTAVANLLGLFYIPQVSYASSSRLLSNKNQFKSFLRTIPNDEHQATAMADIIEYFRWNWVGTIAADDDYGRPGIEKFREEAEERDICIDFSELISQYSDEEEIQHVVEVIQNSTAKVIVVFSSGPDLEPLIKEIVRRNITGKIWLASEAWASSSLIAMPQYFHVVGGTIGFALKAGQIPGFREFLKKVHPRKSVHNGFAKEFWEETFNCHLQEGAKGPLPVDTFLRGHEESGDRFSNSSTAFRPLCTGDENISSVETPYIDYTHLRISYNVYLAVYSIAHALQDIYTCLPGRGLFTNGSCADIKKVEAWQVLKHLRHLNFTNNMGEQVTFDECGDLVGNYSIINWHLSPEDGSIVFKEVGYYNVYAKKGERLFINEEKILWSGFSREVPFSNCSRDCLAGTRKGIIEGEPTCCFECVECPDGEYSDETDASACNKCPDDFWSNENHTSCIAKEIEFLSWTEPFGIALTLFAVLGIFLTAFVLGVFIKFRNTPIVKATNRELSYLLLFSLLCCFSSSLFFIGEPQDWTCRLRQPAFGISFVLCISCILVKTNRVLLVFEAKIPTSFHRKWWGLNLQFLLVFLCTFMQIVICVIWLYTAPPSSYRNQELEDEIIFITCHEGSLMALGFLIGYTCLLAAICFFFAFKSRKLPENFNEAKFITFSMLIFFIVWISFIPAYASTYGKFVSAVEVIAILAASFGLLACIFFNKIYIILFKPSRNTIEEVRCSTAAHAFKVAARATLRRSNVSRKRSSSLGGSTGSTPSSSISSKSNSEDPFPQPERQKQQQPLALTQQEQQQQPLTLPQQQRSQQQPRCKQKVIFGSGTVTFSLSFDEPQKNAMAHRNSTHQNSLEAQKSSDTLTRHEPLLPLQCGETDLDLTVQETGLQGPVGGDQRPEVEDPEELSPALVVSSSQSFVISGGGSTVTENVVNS
Format: cell-based
Procedure: In-vitro assay method of Calcimimetics through modulation of Calcium Sensing Receptor (CaSR):
The ability of the compounds to modulate Calcium sensing receptor is determined by measuring an increase in intracellular calcium [Ca^2+]i. Stably transfected HEK293 cells expressing hCaSR_pTriEx-3 hygro vector are developed. Cells are grown overnight on a 96-well plate to 80% confluency in Ham's F12 containing 20% FBS at 37° C., 5% CO2. Subsequently, cells are washed extensively with 20 mM HEPES buffer containing 126 mM […], 1 mM MgCl2 and 4 mM KCl to remove serum components that might interfere with the assay. Cells are loaded with calcium sensing Fluo4NW dye in HEPES base buffer containing 0.1% BSA and 1 mg/ml glucose for 30 minutes to measure changes in intracellular calcium. The activities of the compounds are measured in FLIPR using 0.3 mM CaCl2 in 20 mM HEPES base buffer. The effectiveness of the compound to modulate receptor activity is determined by calculating the EC50 responses for that compound in an 8-point assay and plotted using GraphPad Prism 5.

| SMILES | EC50 [nM] |
| --- | --- |
| CCN(CC)C(=O)c1cc([C@@H]2C[C@H](CN[C@H](C)c3cccc4ccccc34)Oc3ccccc32)ccc1C [Example 146, N,N-Diethyl-2-methyl-5-((2R,4S)-2-((((R)-1-(naphthalen-1-yl)ethyl)amino)methyl)chroman-4-yl)benzamide hydrochloride] | 20 to 50 |
| Cc1cc([C@@H]2C[C@H](CN[C@H](C)c3cccc4ccccc34)Oc3ccccc32)ccc1C(=O)O [Example 99b, 2-Methyl-4-((2R,4S)-2-((((R)-1-(naphthalen-1-yl)ethyl)amino)methyl)chroman-4-yl)benzoic acid hydrochloride] | < 20 |
| Cc1cc(C(=O)O)cc([C@@H]2C[C@H](CN[C@H](C)c3cccc4ccccc34)Oc3ccccc32)c1 [Example 75, 3-Methyl-5-((2R,4S)-2((((R)-1-(naphthalen-1-yl)ethyl)amino)methyl)chroman-4-yl)benzoic acid hydrochloride] | < 20 |
| Cc1ccc([C@@H]2C[C@H](CN[C@H](C)c3cccc4ccccc34)Oc3ccccc32)cc1C(=O)O [Example 84b, 2-Methyl-5-((2R,4S)-2-((((R)-1-(naphthalen-1-yl)ethyl)amino)methyl)chroman-4-yl)benzoic acid hydrochloride] | < 20 |
| C[C@@H](NC[C@H]1C[C@@H](c2ccc(OCC(=O)O)cc2)c2ccccc2O1)c1cccc2ccccc12 [Example 105b, 2-(4-((2R,4S)-2-((((R)-1-(Naphthalen-1-yl)ethyl)amino)methyl)chroman-4-yl)phenoxy)acetic acid hydrochloride] | < 20 |
| C[C@@H](NC[C@H]1C[C@@H](c2ccc(C(C)(C)C(=O)O)cc2)c2ccccc2O1)c1cccc2ccccc12 [Example 108b, 2-Methyl-2-(4-((2R,4S)-2-((((R)-1-(naphthalen-1-yl)ethyl)amino)methyl)chroman-4-yl)phenyl)propanoic acid hydrochloride] | 50 to 200 |
